PubChem BioAssay AID1918940 (Molecular Pharmacology Branch, DTP, NCI, 2023)
pIC50: −log10 of the molar value. “And” between values parts separate entries of the source, which are not always exact repeats. Equal entries are not always repeated.

Tested on: NCI-H211 complex spheroid viability
Test: Anticancer human tumor NCI-H211 cell line growth inhibition [LSD1];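 further: luminescent viability read after seven days of drug exposure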;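 on viability, T/C: 100% = DMSO vehicle control viability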
Settings: for viability, T/C: stronger effect = lower value; for pIC50: curve of compound
Text: Multicellular complex tumor spheroid response to LSD1 Inhibitor Iadademstat in combination with a variety of drugs and investigational agents in selected tumor cell lines
The current study was undertaken to assess response to LSD1 inhibitors in combination with standard-of-care drugs and investigational agents in solid tumor complex spheroid models as well as in the K-562 leukemia. Complex spheroids include a stromal component modeled by human endothelial cells (HUVEC) and fibroblasts modeled by human mesenchymal stem cells (MSCs). The concentration ranges selected for each drug and investigational agent were based upon clinically achievable concentrations if the clinical Cmax of the agent was known.
Compounds. The drugs and investigational agents used in this study are listed on Table 1. All of the agents used, including staurosporine (NSC755774) and gemcitabine (NSC613327), were obtained from the Developmental Therapeutics Program, NCI. FDA-approved anticancer drugs are available from the NCI at http://dtp.nci.nih.gov/branches/dscb/oncology_drugset_explanation.html. Drugs and investigational agents were >95% pure by proton nuclear magnetic resonance (NMR) and liquid chromatography/mass spectrometry (LC/MS). Stock solutions were prepared at 400x in DMSO, stored at -70 degrees C, and diluted in fresh medium prior to their use. The final concentration of DMSO in cell culture wells never exceeded 0.25% (v/v). The FDA-approved anticancer drug set is available from the Developmental Therapeutics Program at https://dtp.cancer.gov/organization/dscb/obtaining/available_plates.htm. All drugs and investigational agents were tested over a range starting from a high concentration at or near the clinical Cmax and decreasing in half-log increments. If the clinical Cmax for an agent had not been determined, the highest concentration tested was 10 microM.
Cell Lines. The patient-derived cancer cell (PDC) lines: 292921-168-R-J2-PDC, K24384-001-R-PDC, and 521955-158-R2-J5-PDC pancreatic carcinomas, 556581-035-R-J1 ovarian carcinoma, 324938-238-R-J1-PDC, 855422-203-R-J1-PDC and 883617-216-R-J1-PDC urothelial bladder carcinomas, 743489-274-T-PDC renal cell carcinoma, 138582-R-J1 Merkel cell tumor, K60290-347-R-J1 and K57222-313-R-J1-PDC glioblastomas, 653999-131-R-J2-PDC, LG0703-F948-PDC, and 349418-098-R-PDC non-small cell lung carcinomas, 885512-296-R-J2-PDC, 171881-019-R-J1-PDC breast carcinomas and 186277-243-T-J2-PDC and 233499-124-R-J2-PDC colon carcinomas were obtained from the NCI Patient-Derived Models Repository (PDMR, https://pdmr.cancer.gov). The established cell lines NCI/ADR-RES (RRID:CVCL_14520 and OVCAR-5 (RRID:CVCL_1628) ovarian carcinomas, 786-O (RRID:CVCL_1051) and A498 (RRID:CVCL_A498) renal cell carcinoma, NCI-H211 (ATCC, cat. CRL-5824; RRID:CVCL_1529), NCI-H196 (ATCC, cat. CRL-5823, RRID:CVCL_1509), SW 1271 (ATCC, cat. CRL-2177, RRID:CVCL_1716) and NCI-H1876 (ATCC, cat. CRL-5902, RRID:CVCL_1503) small cell lung carcinomas, MDA-MB-231 (RRID:CVCL_0062) and MDA-MB-468 (RRID:CVCL_0419)breast carcinomas (10-12). Pooled donor human umbilical vein endothelial cells (HUVEC, Lonza, cat. CC-2519) and human mesenchymal stem cells (hMSC, Lonza, cat. PT-2501) were purchased from Lonza (Walkersville, MD).
Cell Culture. All cells were maintained in an incubator at 37 degrees C and 5% CO2 with 95% humidity. The PDC lines were cultured according to standard operating procedures established by the NCI PDMR (https://pdmr.cancer.gov). Briefly all PDCs were thawed and cultured in Matrigel-coated flasks prepared with a working solution of 1X Ham's F-12 nutrient mix, without supplementation (Invitrogen, Waltham, MA, cat. 11765054), 100 U/mL penicillin-streptomycin (Invitrogen, cat. 15140122), and 2.5% Matrigel (Corning Inc., Corning, NY, cat. 354248) for the first three passages. […]

Compound | viability, T/C (compound 0.000316 µM) | viability, T/C (compound 0.001 µM) | viability, T/C (compound 0.00316 µM) | viability, T/C (compound 0.01 µM) | viability, T/C (compound 0.0316 µM) | viability, T/C (compound 0.1 µM) | pIC50 | viability, T/C (compound 0.316 µM) | viability, T/C (compound 1 µM) | viability, T/C (compound 3.16 µM) | viability, T/C (compound 10 µM) | viability, T/C (compound 0.00949 µM) | viability, T/C (compound 0.03 µM) | viability, T/C (compound 0.0949 µM) | viability, T/C (compound 0.3 µM) | viability, T/C (compound 0.949 µM) | viability, T/C (compound 3 µM) | viability, T/C (compound 0.000949 µM) | viability, T/C (compound 0.003 µM)
CC(C)CC(NC(=O)C(Cc1ccccc1)NC(=O)c1cnccn1)B(O)O (stereo not drawn) | 109% and 100% | 96.9% and 86.8% | 25.4% and 29.6% | 6.26% and 1.54% | 0.16% and 0.2% | 0.16% and 0.32% | 8.67 and 8.68 | – | – | – | – | – | – | – | – | – | – | – | –
CC(C)CC(NC(=O)CNC(=O)c1cc(Cl)ccc1Cl)B1OC(=O)CC(CC(=O)O)(C(=O)O)O1 (stereo not drawn) | 125% and 105% | 114% and 102% | 112% and 115% | 65.5% and 41.5% | 16% and 14% | 3.55% and 4.35% | 7.84 and 8.06 | – | – | – | – | – | – | – | – | – | – | – | –
CC(C)c1c(-c2ccccc2)nc2c(C#N)c[nH]n2c1=O | – | – | – | – | 104% and 81.5% | 127% and 88% | < 5.00 | 103% and 68.7% | 114% and 68.7% | 98.9% and 67% | 97.3% and 75.2% | – | – | – | – | – | – | – | –
CC1(C)CCC(CN2CCN(c3ccc(C(=O)NS(=O)(=O)c4ccc(NCC5CCOCC5)c([N+](=O)[O-])c4)c(Oc4cnc5[nH]ccc5c4)c3)CC2)=C(c2ccc(Cl)cc2)C1 | – | – | – | – | 95.3% and 36.1% | 98.2% and 43.8% | – | 98.3% and 47.9% | 124% and 72.7% | 118% and 99.6% | 32.2% and 60.1% | – | – | – | – | – | – | – | –
CC1COCCN1c1cc(-c2ccnn2C)c2ccnc(-c3ccn[nH]3)c2n1 (stereo not drawn) | – | – | 68.4% and 38.3% | 21.5% and 14% | 4.05% and 7.88% | 2.34% and 6.02% | 8.30 and > 8.50 | 2.16% and 5.04% | 2.28% and 5.77% | – | – | – | – | – | – | – | – | – | –
CC1COCCN1c1cc(C2(S(C)(=N)=O)CC2)nc(-c2ccnc3[nH]ccc23)n1 (stereo not drawn) | – | – | – | – | 84.3% and 102% | 72.6% and 81.8% | 6.52 and 6.39 | 49.4% and 63.4% | 20.4% and 14.6% | 4.23% and 5.02% | 2.56% and 2.74% | – | – | – | – | – | – | – | –
CCN(c1cc(-c2ccc(CN3CCOCC3)cc2)cc(C(=O)NCc2c(C)cc(C)[nH]c2=O)c1C)C1CCOCC1 | – | – | – | – | – | – | < 5.52 and 5.86 | – | – | – | – | 122% and 86.1% | 108% and 75.3% | 100% and 68.3% | 97.3% and 54.6% | 96.4% and 52.2% | 93.8% and 47.7% | – | –
CC[C@@]1(O)C(=O)OCc2c1cc1n(c2=O)Cc2cc3c(CN(C)C)c(O)ccc3nc2-1 | 66.6% and 67% | 11.4% and 13.2% | 2.8% and 5.22% | 2.3% and 5.28% | 2.56% and 5.04% | 0.87% and 3.38% | 9.35 and 9.34 | – | – | – | – | – | – | – | – | – | – | – | –
CCc1c2c(nc3ccc(O)cc13)-c1cc3c(c(=O)n1C2)COC(=O)[C@]3(O)CC | – | – | – | – | – | – | > 9.02 | – | – | – | – | 0.42% and 1.27% | 0.59% and 0.51% | 0.14% and 0.18% | 0.21% and 0.25% | – | – | 1.09% and 3.31% | 0.88% and 2.36%
COc1cc(C2c3cc4c(cc3C(OC3OC5COC(C)OC5C(O)C3O)C3COC(=O)C23)OCO4)cc(OC)c1O (stereo not drawn) | – | – | – | – | – | – | 7.83 and > 8.02 | – | – | – | – | 71.3% and 48.3% | 15.2% and 13.1% | 2.55% and 6.21% | 2.41% and 5.04% | 2.11% and 6.22% | 2.35% and 5.42% | – | –
COc1cc(Nc2ncc3c(n2)-c2ccc(Cl)cc2C(c2c(F)cccc2OC)=NC3)ccc1C(=O)O | – | – | 44.2% and 45.2% | 8.97% and 8.03% | 5.37% and 3.95% | 4.19% and 5.61% | > 8.50 | 3.59% and 4.36% | 3.38% and 3.29% | – | – | – | – | – | – | – | – | – | –
COc1ccc([C@@H](O)c2cc(-c3ncnc4cc(N5CCOCC5)ccc34)c(F)cc2Cl)nn1 | – | – | – | – | 108% and 89.2% | 96.5% and 86.3% | 5.33 and 5.31 | 93.7% and 94.2% | 103% and 87.4% | 70.8% and 76.6% | 10.4% and 8.12% | – | – | – | – | – | – | – | –
Cn1ncnc1C1c2n[nH]c(=O)c3cc(F)cc(c23)NC1c1ccc(F)cc1 (stereo not drawn) | 102% and 103% | 94.9% and 82.6% | 44.8% and 29% | 5.27% and 6.62% | 8.07% and 5.97% | 3.43% and 6.43% | 8.55 and 8.70 | – | – | – | – | – | – | – | – | – | – | – | –
NC1CCC(NC2CC2c2ccccc2)CC1 (stereo not drawn) | – | – | – | – | – | – | – | 74.9% [middle of 4 runs] | – | – | 36.1% [middle of 23 runs] | – | – | – | – | – | – | – | –
NS(=O)(=O)OCC1CC(n2ccc3c(NC4CCc5ccccc54)ncnc32)CC1O (stereo not drawn) | – | – | – | – | – | – | > 8.02 | – | – | – | – | 27% and 23.2% | 11.8% and 10.5% | 2.66% and 3.81% | 6.35% and 1.26% | 0.58% and 0.97% | 0.31% and 0.53% | – | –
Nc1ccccc1NC(=O)c1ccc(CNC(=O)OCc2cccnc2)cc1 | – | – | – | – | – | – | 7.50 and 7.66 | – | – | – | – | 106% and 110% | 51.8% and 28.6% | 5.07% and 4.05% | 1.34% and 3.99% | 0.93% and 2.1% | 0.2% and 0.22% | – | –
Nc1ccn(C2OC(CO)C(O)C2(F)F)c(=O)n1 (stereo not drawn) | – | – | – | – | – | – | > 9.02 | – | – | – | – | 7.87% and 4.04% | 2.08% and 4.19% | 2.85% and 4.27% | 2.42% and 5% | – | – | 2.49% and 5.54% | 2.72% and 4.15%
Nc1ncn(C2CC(O)C(CO)O2)c(=O)n1 (stereo not drawn) | – | – | 35.4% and 37.7% | 21.4% and 19% | 9.11% and 7% | 2.47% and 4.09% | > 8.50 | 1.77% and 5.19% | 1.67% and 4.71% | – | – | – | – | – | – | – | – | – | –
Nc1ncn(C2CC(O)C(CO)S2)c(=O)n1 (stereo not drawn) | – | – | – | – | – | – | 8.72 and > 9.02 | – | – | – | – | 9.28% and 10.7% | 3.02% and 5.29% | 1.96% and 4.56% | 2.36% and 4.76% | – | – | 74.8% and 46.6% | 33.3% and 23.1%
O=C(C=Cc1cccc(S(=O)(=O)Nc2ccccc2)c1)NO | – | – | – | – | – | – | > 8.02 | – | – | – | – | 28.4% and 18.3% | 3.38% and 8.21% | 2.69% and 7.91% | 2.15% and 6.02% | 0.94% and 1.35% | 0.17% and 0.22% | – | –
O=C(C=Cn1cnc(-c2cc(C(F)(F)F)cc(C(F)(F)F)c2)n1)NNc1cnccn1 | – | – | 45.9% and 53.7% | 24% and 37.6% | 11.7% and 14.6% | 4.91% and 5.02% | > 8.50 and 8.38 | 1.61% and 2.32% | 1.37% and 2.1% | – | – | – | – | – | – | – | – | – | –
O=C(c1cc(Cc2n[nH]c(=O)c3ccccc23)ccc1F)N1CCN(C(=O)C2CC2)CC1 | – | – | – | – | 59.8% and 54.5% | 30.3% and 22.6% | 7.33 and 7.43 | 6.95% and 9.45% | 3.01% and 7.35% | 2.95% and 7.77% | 2.77% and 6.06% | – | – | – | – | – | – | – | –
